Experimental data reported in US20260000674A1, “PHARMACEUTICAL COMPOSITION” (GEXVal Inc., priority 2022, published 2026).
Structures can show the parent of a compound that is named as a salt.

Tested on: dermatitis in psoriasis model mice
Assay: Auricular thickening in imiquimod-induced psoriasis model mice (Test Examples 1 to 7)
Type: in vivo, male BALB/cCrSlc mice
Details: oral, Day 0 to Day 3
Method: 15 mg/ear of imiquimod cream (product name: Beselna cream, manufactured by Mochida Pharmaceutical Co., Ltd.) was repeatedly applied to the right auricle of male BALB/cCrSlc mice (9 weeks old) at once a day for 4 days (Day 0 to Day 3) to prepare psoriasis model mice. One hour before the imiquimod application, Vehicle (0.5% methylcellulose (hereinafter abbreviated as 0.5% MC)), 3 mg/kg body weight MSP (5-HT4 receptor agonist), 3 mg/kg body weight RZT (5-HT1 receptor agonist), 3 mg/kg body weight TDS (5-HT1 receptor agonist), 3 mg/kg body weight LCS (5-HT2 receptor agonist), and 10 mg/kg body weight APR (positive control) were orally administered at 10 mL/kg body weight each (Day 0 to Day 3) (n=6 per administration group). The auricular thickness was measured before the imiquimod cream application (Day 0) and approximately 24 hours after the final administration of each evaluation substance (Day 1 to Day 4), and the difference in auricular thickness (auricular thickening) between Day 0 and Day 4 was evaluated as the degree of inflammation. Day 0 was defined as the day on which the imiquimod cream application was started.
Psoriasis model mice were prepared by the same method as in Test Example 1, and Vehicle (0.5% MC), 3 mg/kg body weight MSP, 30 mg/kg body weight MSP, and 10 mg/kg body weight APR (positive control) were orally administered at 10 mL/kg body weight each (Day 0 to Day 3) (n=6 per administration group). The difference in auricular thickness (auricular thickening) between Day 0 and Day 4 was evaluated as the degree of inflammation.
Psoriasis model mice were prepared by the same method as in Test Example 1, and Vehicle (0.5% MC), 3 mg/kg body weight MSP, 3 mg/kg body weight PCP, 10 mg/kg body weight PCP, 30 mg/kg body weight PCP, 3 mg/kg body weight VRG, 10 mg/kg body weight VRG, 30 mg/kg body weight VRG, and 10 mg/kg body weight APR (positive control) were orally administered at 10 mL/kg each (Day 0 to Day 3) (n=6 per administration group). The difference in auricular thickness (auricular thickening) between Day 0 and Day 4 was evaluated as the degree of inflammation.
Psoriasis model mice were prepared by the same method as in Test Example 1, and Vehicle (0.5% MC), 30 mg/kg body weight MSP, 30 mg/kg body weight CNP, 30 mg/kg body weight VRG, 30 mg/kg body weight CBP, and 10 mg/kg body weight APR (positive control) were orally administered at 10 mL/kg body weight each (Day 0 to Day 3) (n=6 per administration group). The difference in auricular thickness (auricular thickening) between Day 0 and Day 4 was evaluated as the degree of inflammation.
Psoriasis model mice were prepared by the same method as in Test Example 1, and Vehicle (0.5% MC), 30 mg/kg body weight PCP, 30 mg/kg body weight CSP, 30 mg/kg body weight TGR, and 10 mg/kg body weight APR (positive control) were orally administered at 10 mL/kg body weight each (Day 0 to Day 3) (n=6 per administration group). The difference in auricular thickness (auricular thickening) between Day 0 and Day 4 was evaluated as the degree of inflammation.
Psoriasis model mice were prepared by the same method as in Test Example 1, and Vehicle (0.5% MC), 30 mg/kg body weight FCT, 30 mg/kg body weight UMP, 30 mg/kg body weight RLP, 30 mg/kg body weight RZP, 30 mg/kg body weight MSP, and 10 mg/kg body weight APR (positive control) were orally administered at 10 mL/kg body weight each (Day 0 to Day 3) (n=6 per administration group). The difference in auricular thickness (auricular thickening) between Day 0 and Day 4 was evaluated as the degree of inflammation.
Psoriasis model mice were prepared by the same method as in Test Example 1, and Vehicle (0.5% MC), 30 mg/kg body weight NRP, 30 mg/kg body weight CJ-033466, 30 mg/kg body weight RVP, 30 mg/kg body weight E-3620, 30 mg/kg body weight MSP, and 10 mg/kg body weight APR (positive control) were orally administered at 10 mL/kg body weight each (Day 0 to Day 3) (n=6 per administration group). […]

[1] = Test Example 4, FIG. 4, 30 mg/kg body weight
[2] = Test Example 7, FIG. 7, 30 mg/kg body weight
[3] = Test Example 5, FIG. 5, 30 mg/kg body weight
[4] = Test Example 6, FIG. 6, 30 mg/kg body weight
[5] = Test Example 1, FIG. 1, 3 mg/kg body weight
[6] = Test Example 3, FIG. 3, at all doses (3, 10 and 30 mg/kg body weight)

## CCOc1cc([C@@H](CS(C)(=O)=O)N2C(=O)c3cccc(NC(C)=O)c3C2=O)ccc1OC [APR, Apremilast]
Test Example 1, FIG. 1, 10 mg/kg body weight
  auricular thickening (difference in auricular thickness between Day 0 and Day 4) compared with 0.5% MC: significantly suppressed the auricular thickening
Test Example 3, FIG. 3, 10 mg/kg body weight
  auricular thickening (difference in auricular thickness between Day 0 and Day 4) compared with 0.5% MC: significantly suppressed the auricular thickening
Test Example 4, FIG. 4, 10 mg/kg body weight
  auricular thickening (difference in auricular thickness between Day 0 and Day 4) compared with 0.5% MC: significantly suppressed the auricular thickening
Test Example 5, FIG. 5, 10 mg/kg body weight
  auricular thickening (difference in auricular thickness between Day 0 and Day 4) compared with 0.5% MC: significantly suppressed the auricular thickening
Test Example 6, FIG. 6, 10 mg/kg body weight
  auricular thickening (difference in auricular thickness between Day 0 and Day 4) compared with 0.5% MC: significantly suppressed the auricular thickening
Test Example 7, FIG. 7, 10 mg/kg body weight
  auricular thickening (difference in auricular thickness between Day 0 and Day 4) compared with 0.5% MC: significantly suppressed the auricular thickening

## COc1cc(N)c(Cl)cc1C(=O)NC1CCN(Cc2ccccc2)CC1 [CBP, Clebopride malate]
[1]
  auricular thickening (difference in auricular thickness between Day 0 and Day 4) compared with 0.5% MC: significantly suppressed the auricular thickening

## Cc1cn2c(N)c(Cl)cc(C(=O)NCC3CCN(CC(C)C)CC3)c2n1 [CJ-033466]
[2]
  auricular thickening (difference in auricular thickness between Day 0 and Day 4) compared with 0.5% MC: significantly suppressed the auricular thickening

## COc1cc(N)c(Cl)cc1C(=O)NC1CCN(CCCOc2ccc(F)cc2)CC1OC (stereo not shown) [CSP, Cisapride]
[3]
  auricular thickening (difference in auricular thickness between Day 0 and Day 4) compared with 0.5% MC: significantly suppressed the auricular thickening

## CC#C[C@H](C)Oc1cc(N)c(Cl)cc1C(=O)NC1C[C@H]2CC[C@@H](C1)N2C.Cl (stereo partly shown) [E-3620]
[2]
  auricular thickening (difference in auricular thickness between Day 0 and Day 4) compared with 0.5% MC: significantly suppressed the auricular thickening

## COC(=O)N1CCC(CN2CCC(CNC(=O)c3cccc4nc(C(C)C)[nH]c34)CC2)CC1 [FCT, Felcisetrag]
[4]
  auricular thickening (difference in auricular thickness between Day 0 and Day 4) compared with 0.5% MC: significantly suppressed the auricular thickening

## C[C@H]1CNCCc2ccc(Cl)cc21 [LCS, Lorcaserin hydrochloride]
[5]
  auricular thickening (difference in auricular thickness between Day 0 and Day 4) compared with 0.5% MC: none of 3 mg/kg body weight RZT (5-HT1 receptor agonist) (comparative example), 3 mg/kg body weight TDS (5-HT1 receptor agonist) (comparative example), and 3 mg/kg body weight LCS (5-HT2 receptor agonist) (comparative example) suppressed the auricular thickening

## COc1cc(N)c(Cl)cc1C(=O)N[C@@H]1CCN(CCCCCC(=O)O[C@H]2CN3CCC2CC3)C[C@@H]1OC [NRP, Naronapride hydrochloride]
[2]
  auricular thickening (difference in auricular thickness between Day 0 and Day 4) compared with 0.5% MC: significantly suppressed the auricular thickening

## COc1cc(N)c(Cl)cc1C(=O)NCC1CCN(CC[C@H](OC(N)=O)c2ccc(F)cc2)CC1.Cl [RLP, Relenopride hydrochloride]
[4]
  auricular thickening (difference in auricular thickness between Day 0 and Day 4) compared with 0.5% MC: significantly suppressed the auricular thickening

## COCCCN1CC[C@@H](CNC(=O)c2cc(Cl)c(N)c3c2OC(C)(C)C3)[C@H](O)C1 [RVP, Revexepride]
[2]
  auricular thickening (difference in auricular thickness between Day 0 and Day 4) compared with 0.5% MC: significantly suppressed the auricular thickening

## CN(C)CCc1c[nH]c2ccc(Cn3cncn3)cc12 [RZT, Rizatriptan benzoate]
[5]
  auricular thickening (difference in auricular thickness between Day 0 and Day 4) compared with 0.5% MC: none of 3 mg/kg body weight RZT (5-HT1 receptor agonist) (comparative example), 3 mg/kg body weight TDS (5-HT1 receptor agonist) (comparative example), and 3 mg/kg body weight LCS (5-HT2 receptor agonist) (comparative example) suppressed the auricular thickening

## [H]/N=C(/NCCCCC)N/N=C/c1c[nH]c2ccc(OC)cc12 [TGR, Tegaserod maleate]
[3]
  auricular thickening (difference in auricular thickness between Day 0 and Day 4) compared with 0.5% MC: significantly suppressed the auricular thickening

## COCCCN1CCC(c2nnc(-c3nn(C(C)C)c4ccccc34)o2)CC1 [UMP, Usmarapride]
[4]
  auricular thickening (difference in auricular thickness between Day 0 and Day 4) compared with 0.5% MC: significantly suppressed the auricular thickening

## CC(C)n1c(=O)c(C(=O)N[C@H]2C[C@H]3CC[C@@H](C2)N3C[C@@H](O)CN(C)S(C)(=O)=O)cc2ccccc21 [VRG, Velusetrag]
[6]
  auricular thickening (difference in auricular thickness between Day 0 and Day 4) compared with 0.5% MC: significantly suppressed the auricular thickening at all doses
[1]
  auricular thickening (difference in auricular thickness between Day 0 and Day 4) compared with 0.5% MC: significantly suppressed the auricular thickening

## Cinitapride tartrate [CNP]
[1]
  auricular thickening (difference in auricular thickness between Day 0 and Day 4) compared with 0.5% MC: significantly suppressed the auricular thickening

## Mosapride citrate dihydrate [MSP]
[5]
  auricular thickening (difference in auricular thickness between Day 0 and Day 4) compared with 0.5% MC: significantly suppressed the auricular thickening
Test Example 2, FIG. 2, 3 mg/kg body weight
  auricular thickening (difference in auricular thickness between Day 0 and Day 4) compared with 0.5% MC: significantly suppressed the auricular thickening in a dose-dependent manner
Test Example 2, FIG. 2, 30 mg/kg body weight
  auricular thickening (difference in auricular thickness between Day 0 and Day 4) compared with 0.5% MC: significantly suppressed the auricular thickening in a dose-dependent manner
Test Example 3, FIG. 3, 3 mg/kg body weight
  auricular thickening (difference in auricular thickness between Day 0 and Day 4) compared with 0.5% MC: significantly suppressed the auricular thickening
[1]
  auricular thickening (difference in auricular thickness between Day 0 and Day 4) compared with 0.5% MC: significantly suppressed the auricular thickening
[4]
  auricular thickening (difference in auricular thickness between Day 0 and Day 4) compared with 0.5% MC: significantly suppressed the auricular thickening
[2]
  auricular thickening (difference in auricular thickness between Day 0 and Day 4) compared with 0.5% MC: significantly suppressed the auricular thickening

## Prucalopride succinate [PCP]
[6]
  auricular thickening (difference in auricular thickness between Day 0 and Day 4) compared with 0.5% MC: significantly suppressed the auricular thickening at all doses
[3]
  auricular thickening (difference in auricular thickness between Day 0 and Day 4) compared with 0.5% MC: significantly suppressed the auricular thickening

## Tandospirone citrate [TDS]
[5]
  auricular thickening (difference in auricular thickness between Day 0 and Day 4) compared with 0.5% MC: none of 3 mg/kg body weight RZT (5-HT1 receptor agonist) (comparative example), 3 mg/kg body weight TDS (5-HT1 receptor agonist) (comparative example), and 3 mg/kg body weight LCS (5-HT2 receptor agonist) (comparative example) suppressed the auricular thickening
